Experimental data: patent publication US20200085839A1, “COMBINATION OF IMMUNOTHERAPEUTICS AND BISFLUOROALKYL-1,4-BENZODIAZEPINONE COMPOUNDS FOR TREATING LYMPHOMAS” (Ayala Pharmaceuticals Inc., priority 2018, published 2020)
Read-outs that look alike come from different tables or passages of the source.

How the values were obtained:
Assay type in all cases: cell-based, human
GFP^+ LPL line = assay: Lysis of GFP expressing tumor cell lines by BCMA-CAR-T cells and/or Compound (1); settings: BCMA-CAR-T cells and Compound (1) combined; 36 h
Source text: Multiple unique fully human scFvs to BCMA are generated, and CARs based on these scFvs are generated. Multiple scFvs are identified by screening a fully human scFv phage library (>6×10^10 scFvs) with BCMA-Fc fusion protein and then 3T3 cells expressing human BCMA. FACS analysis of phage antibody clones against BCMA-3T3 and parental 3T3 cell lines is used to confirm unique positive clones.
The generated scFvs are used to generate BCMA-targeted CARs. These BCMA-targeted CARs have similar structure, e.g., each has a transmembrane domain comprising a CD28 polypeptide, and an intracellular domain comprising a […] and a co-stimulatory signaling region that comprises a CD28 polypeptide. Each of these BCMA-targeted CARs are cloned into a retroviral vector. These viral vectors are then transduced into HEK 293galv9 viral packaging cells in order to generate a stable packaging line for generation of CAR+ T cells. […] The cell surface expression of BCMA-targeted CARs on human T cells is determined via binding A647 conjugated BCMA-Fc fusion protein. The cell surface expression of BCMA-targeted 28z CAR24 is assessed, and cell surface detection is validated by flow cytometry.
The ability of BCMA-CAR-T cells and Compound (1) to specifically lyse human myeloma cell line (HMCL) is tested. […] At time 0, the percent of GFP tumor line is determined.

[1] = tested on: BCMA negative CD19 positive Raji Burkett lymphoma cell line; assay: Lysis of BCMA negative cells by BCMA-CAR-T cells and/or Compound (1); settings: combination with BCMA-CAR-T cells or each alone
RC cells (DLBCL) = assay: Cell surface BCMA by FACS
Method: (§1) Cells were seeded at 1×10^4 cells/well in a total volume of 250 μl into a 96-well plate. The cells were cultured in RPMI supplemented with 10% FCS.
(§2) The tested compounds (Compound 1 and Compound 22) were added to the cell cultures at concentrations of: 0, 10, 1, 0.5, 0.1, 0.01, 0.001 μM ([…], 10 nM, 100 nM, 500 nM, 1000 nM, and 10000 nM). Following 24 hours of incubation at 37° C., the cells were collected and stained with anti-BCMA antibody and immediately analyzed by FACS.
(§3) […] cell lines, comprising 9 subtypes of lymphomas (see Table 1), were seeded at 1×10^5 cells/well in a total volume of 250 μl into a 96-well plate. The cells were cultured in RPMI medium supplemented with 10% FCS. Compound (22) was added to the cell cultures at a concentration of 10 μM, 1 μM, 100 nM, 10 nM, 1 nM, 100 pM, 10 pM, 1 pM, and 100 fM, and cell lines (8 from Hadassah Medical Center, 31 from Eurofins) were incubated at 37° C. for 24 hours with Compound (22). Following incubation, the cells were collected and BCMA levels were evaluated on the cell surface for cell-bound BCMA. Cells were stained with an anti-BCMA antibody (PE anti-human 19F2 BCMA, Biolegend), and cell surface BCMA levels were determined by FACS analysis (Mean Fluorescence Intensity. Soluble BCMA levels were analyzed by ELISA (Human BCMA/TNFRSF17 DuoSet kit: R&D Systems).

REH cells (B-ALL) = assay: Cell surface BCMA by FACS
Method: as §1, §2, §3

[2] = tested on: SP49 cells (Mantle Cell Lymphoma); assay: Cell surface BCMA by FACS
Method: as §1, §2, §3

[3] = tested on: SUDHL-4 (Haddasah) cells (DLBCL); assay: Cell surface BCMA by FACS
Method: as §1, §2, §3

SUDHL-6 cells (DLBCL) = assay: Cell surface BCMA by FACS
Method: as §1, §2, §3

Toledo cells (DLBCL) = assay: Cell surface BCMA by FACS
Method: as §1, §2, §3

[4] = tested on: BCP-1 cells (B-cell Lymphoma); assay: Cell surface BCMA by FACS; settings: for EC50: Homo sapiens
Method: as §3

[5] = tested on: EB-2 cells (Burkitt's Lymphoma); assay: Cell surface BCMA by FACS; settings: for EC50: Homo sapiens
Method: as §3

[6] = tested on: MC-116 cells (B-cell Lymphoma); assay: Cell surface BCMA by FACS; settings: for EC50: Homo sapiens
Method: as §3

[7] = tested on: MHHH-PREB-1 cells (B-cell Lymphoma); assay: Cell surface BCMA by FACS; settings: for EC50: Homo sapiens, B-cell
Method: as §3

[8] = tested on: Raji cells (Burkitt's Lymphoma); assay: Cell surface BCMA by FACS; settings: for EC50: Homo sapiens
Method: as §3

[9] = tested on: SR cells (Anaplastic Large Cell Lymphoma); assay: Cell surface BCMA by FACS; settings: for EC50: Homo sapiens
Method: as §3

[10] = 24 h, read-out: BCMA (Mean Fluorescence Intensity) EC50

## CN1C(=O)[C@@H](NC(=O)[C@H](CCC(F)(F)F)[C@H](CCC(F)(F)F)C(N)=O)N=C(c2ccccc2)c2ccccc21 [Compound 1, (2R,3S)—N-((3S)-1-methyl-2-oxo-5-phenyl-2,3-dihydro-1H-1,4-benzodiazepin-3-yl)-2,3-bis(3,3,3-trifluoropropyl)succinamide]
GFP^+ LPL line
  specific killing of GFP tumor cells: specifically killed more cells of the GFP^+ LPL line than either treatment alone
[1]
  lysis of BCMA negative cells: neither the BCMA-CAR-T cells and Compound (1) combination nor each alone lyses

## Cc1cccc2c1NC(=O)[C@@H](NC(=O)[C@H](CCC(F)(F)F)[C@H](CCC(F)(F)F)C(N)=O)N=C2c1cccc(F)c1 [Compound (22), (2R,3S)—N-((3S)-5-(3-fluorophenyl)-9-methyl-2-oxo-2,3-dihydro-1H-1,4-benzodiazepin-3-yl)-2,3-bis(3,3,3-trifluoropropyl)succinamide]
RC cells (DLBCL)
  mBCMA (MFI) Fold Increase: 2.9 fold
RC cells (DLBCL); 1 nM, 24 h
  BCMA (Mean Fluorescence Intensity) 1 nM Compound (22): 12970
RC cells (DLBCL); 100 nM, 24 h
  BCMA (Mean Fluorescence Intensity) 100 nM Compound (22): 15001
REH cells (B-ALL)
  mBCMA (MFI) Fold Increase: 0.9 fold
REH cells (B-ALL); 1 nM, 24 h
  BCMA (Mean Fluorescence Intensity) 1 nM Compound (22): 5559
REH cells (B-ALL); 100 nM, 24 h
  BCMA (Mean Fluorescence Intensity) 100 nM Compound (22): 6463
[2]
  mBCMA (MFI) Fold Increase: 3.3 fold
[2]; 1 nM, 24 h
  BCMA (Mean Fluorescence Intensity) 1 nM Compound (22): 12697
[2]; 100 nM, 24 h
  BCMA (Mean Fluorescence Intensity) 100 nM Compound (22): 17462
[3]; SUDHL-4 (Haddasah)
  mBCMA (MFI) Fold Increase: 2.5 fold
[3]; SUDHL-4, 1 nM, 24 h
  BCMA (Mean Fluorescence Intensity) 1 nM Compound (22): 16100
[3]; SUDHL-4, 100 nM, 24 h
  BCMA (Mean Fluorescence Intensity) 100 nM Compound (22): 23438
SUDHL-6 cells (DLBCL)
  mBCMA (MFI) Fold Increase: 2.6 fold
SUDHL-6 cells (DLBCL); 1 nM, 24 h
  BCMA (Mean Fluorescence Intensity) 1 nM Compound (22): 22915
SUDHL-6 cells (DLBCL); 100 nM, 24 h
  BCMA (Mean Fluorescence Intensity) 100 nM Compound (22): 24812
Toledo cells (DLBCL)
  mBCMA (MFI) Fold Increase: 3.2 fold
Toledo cells (DLBCL); 1 nM, 24 h
  BCMA (Mean Fluorescence Intensity) 1 nM Compound (22): 7541
Toledo cells (DLBCL); 100 nM, 24 h
  BCMA (Mean Fluorescence Intensity) 100 nM Compound (22): 9580
[4]
  mBCMA (MFI) Fold Increase: 2.9 fold
[4]; 1 nM, 24 h
  BCMA (Mean Fluorescence Intensity) 1 nM Compound (22): 398
[4]; 100 nM, 24 h
  BCMA (Mean Fluorescence Intensity) 100 nM Compound (22): 1159
[4]; FIG. 6A
  cell-bound BCMA: increased cell-bound BCMA
[4]; [10]
  EC50: 45.6 nM
[4]; read-out: mBCMA (MFI) EC50
  EC50: 45.6 nM
[5]
  mBCMA (MFI) Fold Increase: 5.4 fold
[5]; 1 nM, 24 h
  BCMA (Mean Fluorescence Intensity) 1 nM Compound (22): 18536
[5]; 100 nM, 24 h
  BCMA (Mean Fluorescence Intensity) 100 nM Compound (22): 28188
[5]; EB2, 24 h, read-out: BCMA (Mean Fluorescence Intensity) EC50
  EC50: 0.98 nM
[5]; EB2, read-out: mBCMA (MFI) EC50
  EC50: 0.98 nM
[6]
  mBCMA (MFI) Fold Increase: 4.2 fold
[6]; 1 nM, 24 h
  BCMA (Mean Fluorescence Intensity) 1 nM Compound (22): 915
[6]; 100 nM, 24 h
  BCMA (Mean Fluorescence Intensity) 100 nM Compound (22): 1850
[6]; MC116, 24 h, read-out: BCMA (Mean Fluorescence Intensity) EC50
  EC50: 1.9 nM
[6]; MC116, read-out: mBCMA (MFI) EC50
  EC50: 1.9 nM
[7]
  mBCMA (MFI) Fold Increase: 4.5 fold
[7]; 1 nM, 24 h
  BCMA (Mean Fluorescence Intensity) 1 nM Compound (22): 1363
[7]; 100 nM, 24 h
  BCMA (Mean Fluorescence Intensity) 100 nM Compound (22): 1830
[7]; [10]
  EC50: 1.7 nM
[7]; read-out: mBCMA (MFI) EC50
  EC50: 1.7 nM
[8]
  mBCMA (MFI) Fold Increase: 2.2 fold
[8]; 1 nM, 24 h
  BCMA (Mean Fluorescence Intensity) 1 nM Compound (22): 521
[8]; 100 nM, 24 h
  BCMA (Mean Fluorescence Intensity) 100 nM Compound (22): 650
[8]; [10]
  EC50: 1.1 nM
[8]; read-out: mBCMA (MFI) EC50
  EC50: 1.1 nM
[9]
  mBCMA (MFI) Fold Increase: 1.0 fold
[9]; 1 nM, 24 h
  BCMA (Mean Fluorescence Intensity) 1 nM Compound (22): 289
[9]; 100 nM, 24 h
  BCMA (Mean Fluorescence Intensity) 100 nM Compound (22): 293
[9]; [10]
  EC50: > 10000 nM
[9]; read-out: mBCMA (MFI) EC50
  EC50: > 10000 nM
